Consider 11 molecules from ChEMBL document CHEMBL1201862, “PubChem BioAssay data set” (2004).

The term IC50 denotes the concentration that inhibits the measured activity by half. A word on the AC50: it is the concentration at which the activity in the assay is half-maximal. What is called EC50 is the concentration giving half of the maximal effect.

Each structure is given as a SMILES string. The source made the active and inactive calls.

One assay deals with Beta-galactosidase (Escherichia coli, UniProt Q8VNN2). The assay is described as follows: Dose response counterscreen for EBI2 assay utilizing the enzyme, b-galactosidase. It is filed as functional. In general terms: Counterscreens check selectivity or assay interference.
Beta-galactosidase, sequence (Q8VNN2 whole entry): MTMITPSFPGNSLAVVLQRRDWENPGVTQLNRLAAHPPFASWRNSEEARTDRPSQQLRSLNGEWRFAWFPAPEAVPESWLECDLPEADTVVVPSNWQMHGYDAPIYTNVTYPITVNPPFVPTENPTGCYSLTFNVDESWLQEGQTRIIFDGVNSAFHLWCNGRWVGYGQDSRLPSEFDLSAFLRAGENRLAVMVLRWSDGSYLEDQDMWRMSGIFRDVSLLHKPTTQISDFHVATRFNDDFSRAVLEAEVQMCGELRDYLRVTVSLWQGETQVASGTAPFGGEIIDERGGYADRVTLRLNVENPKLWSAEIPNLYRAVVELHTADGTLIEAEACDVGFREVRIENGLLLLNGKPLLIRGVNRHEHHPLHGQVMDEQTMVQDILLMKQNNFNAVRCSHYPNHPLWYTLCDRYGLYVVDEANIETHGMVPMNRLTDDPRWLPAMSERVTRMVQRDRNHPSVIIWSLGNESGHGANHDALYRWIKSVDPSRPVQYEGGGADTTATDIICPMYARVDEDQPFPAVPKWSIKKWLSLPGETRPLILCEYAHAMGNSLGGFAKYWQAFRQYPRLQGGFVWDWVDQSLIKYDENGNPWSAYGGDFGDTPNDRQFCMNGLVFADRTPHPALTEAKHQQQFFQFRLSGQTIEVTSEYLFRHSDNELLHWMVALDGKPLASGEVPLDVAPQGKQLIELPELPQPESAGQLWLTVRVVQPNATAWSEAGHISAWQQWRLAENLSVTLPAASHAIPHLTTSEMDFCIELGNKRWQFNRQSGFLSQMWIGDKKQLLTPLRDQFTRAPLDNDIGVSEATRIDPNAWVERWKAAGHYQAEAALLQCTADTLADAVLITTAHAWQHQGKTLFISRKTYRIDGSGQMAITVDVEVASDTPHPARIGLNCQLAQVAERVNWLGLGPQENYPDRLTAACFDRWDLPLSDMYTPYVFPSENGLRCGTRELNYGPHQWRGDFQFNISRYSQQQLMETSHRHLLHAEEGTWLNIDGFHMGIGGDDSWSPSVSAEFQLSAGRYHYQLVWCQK
Assay [1] addresses Heat shock protein HSP 90-alpha (Homo sapiens, UniProt P07900). The assay is described as follows: Luminescence-based dose response biochemical high throughput screening assay for inhibitors of the Heat Shock Protein 90 (HSP90). [Related pubchem assays: 1831 (Summary AID.), 1846 (Confirmation screen.), 1789 (Primary screen.)].
The target of the next assay is T1, Protein Tat (Human immunodeficiency virus type 1 group M subtype B (isolate HXB2)(HIV-1), UniProt P04608).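 Also: tat binding to TAR RNA read out by fluorescence polarization.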
T1 sequence (P04608 whole entry): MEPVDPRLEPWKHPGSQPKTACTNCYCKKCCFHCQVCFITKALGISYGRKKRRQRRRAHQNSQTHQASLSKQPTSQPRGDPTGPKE
Format: functional.

A short description of assay [2]: CEM21 lymphoblast cell cytotoxicity, dose response, cytotoxicity control for viral fusion inhibitor project, CellTiter-Glo luminescence, cherry-picked (AID 652042).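 Also: potency for signal decrease meaning cytotoxicity.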 It is filed as functional, cell-based. On the technique in general: Cellular ATP, detected with luciferase, serves as a proxy for viable cell number.
The nature of assay [3]: inhibitors of HIV Env-driven cell fusion, dose response, cherry-pick (AID 652057). Format: functional, cell-based.
Assay [4] is described as follows: off-target signal loss in HeLa-CEM21 co-culture – HeLa F-luc CTL cells, cherry-picked, counter-screen for HIV-1 Env fusion inhibitor project, dose response (AID 652040).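 Also: potency for signal decrease marking cytotoxic or nonspecific inhibition.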 It is filed as functional, cell-based.
A further assay concerns H4. In words: Luminescence Cell-Based Dose Response HTS to Identify Activators of 5'UTR Stem-Loop Driven Prion Protein mRNA Translation in H4 Neuroglioblastoma Cells. [Related pubchem assays: 1829 (Project Summary), 1814 (Primary HTS)]. Format: functional. As to conditions: Homo sapiens.
Assay [5] in a line: Luminescence Cell-Based Dose Confirmation to Identify Activators of 5'UTR Stem-Loop Driven Alpha-Synuclein mRNA Translation in H4 Neuroglioblastoma Cells. [Related pubchem assays: 1829 (Project Summary), 1814 (Primary HTS)]. Format: functional.
The nature of assay [6]: Luminescence Cell-Based Dose Response HTS to Identify Activators of Luciferase Translation or Activity in H4 […] Cells. [Related pubchem assays: 1829 (Project Summary), 1814 (Primary HTS)]. It is filed as functional.
Assay [7] can be described thus: Luminescence Cell-Based Dose Response to Identify Activators of Luciferase Translation or Activity in H4-C Neuroglioblastoma Cells. [Related pubchem assays: 1829 (Project Summary), 1814 (Primary HTS)]. It is filed as functional.
Assay [8] in a line: Luminescence Cell-Based Dose Confirmation HTS to Identify Activators of 5'UTR Stem-Loop Driven Alpha-Synuclein mRNA Translation in H4 Neuroglioblastoma Cells. [Related pubchem assays: 1829 (Project Summary), 1814 (Primary HTS)]. Format: functional.
Assay [9] can be described thus: Luminescence Cell-Based Dose Response to Identify Activators of 5'UTR Stem-Loop Driven Prion Protein mRNA Translation in H4-C Neuroglioblastoma Cells. [Related pubchem assays: 1829 (Project Summary), 1814 (Primary HTS)]. It is filed as functional.
Assay [10] can be described thus: IGROV1 ovarian cancer cell cytotoxicity, dose response, PAX8 inhibitor project, plate reader, dry powder samples (AID 743043). Format: functional, cell-based. As to conditions: IGROV-1.
Assay [11] in a line: A2780 ovarian cancer cell cytotoxicity, dose response, cytotoxicity control, plate reader, dry powder samples (AID 743046). Format: functional, cell-based.
Assay [12] in a line: cytotoxicity in OVCAR8 ovarian cancer cells, dose response, PAX8 project, cell-based, plate reader, dry powder samples (AID 743197). It is filed as functional. The settings on record: OVCAR-8.
The target of a further assay is Paired box protein Pax-8 (Homo sapiens, UniProt Q06710). In words: inhibitors of PAX8-driven TPO luciferase reporter, dose response, RMG-I cells, cherry-pick (AID 687027).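 Also: luciferase reporter driven by Pax8 target thyroperoxidase promoter measured by SteadyGlo luminescence.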 It is filed as functional, cell-based. For orientation: In a reporter assay the amount or activity of a reporter protein is the signal.
Paired box protein Pax-8, sequence (Q06710 whole entry): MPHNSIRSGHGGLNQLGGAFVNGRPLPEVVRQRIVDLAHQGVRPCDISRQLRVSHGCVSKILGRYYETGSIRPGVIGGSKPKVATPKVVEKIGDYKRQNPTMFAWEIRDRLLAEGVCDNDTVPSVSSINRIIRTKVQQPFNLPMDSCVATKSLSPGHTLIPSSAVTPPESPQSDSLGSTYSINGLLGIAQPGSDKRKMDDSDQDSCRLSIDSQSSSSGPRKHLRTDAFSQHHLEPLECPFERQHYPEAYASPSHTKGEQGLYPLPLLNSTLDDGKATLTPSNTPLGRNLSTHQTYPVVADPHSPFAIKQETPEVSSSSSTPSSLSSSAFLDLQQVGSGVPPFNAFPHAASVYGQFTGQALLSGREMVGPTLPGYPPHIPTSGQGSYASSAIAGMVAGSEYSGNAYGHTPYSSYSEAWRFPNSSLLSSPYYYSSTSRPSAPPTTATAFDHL
The nature of assay [13]: NIH:OVCAR-3 ovarian cancer cell cytotoxicity, dose response, PAX8 inhibitor project, plate reader, dry powder samples (AID 743044). It is filed as functional, cell-based.
Assay [14] can be described thus: inhibitors of clade B AD8 Env fusion, dose response, cell-based, cherry-pick (AID 652062).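 Also: luciferase signal from cell-cell fusion driven by HIV-1 clade B AD8 Env; potency is for inhibitors of fusion seen as a drop in luminescence.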 It is filed as functional.
The nature of assay [15]: ZM109 Env clade C HIV-1 fusion inhibitors, dose response, HeLa effector, CEM target cells, luciferase, cherry-pick (AID 652058). Format: functional, cell-based.
The nature of assay [16]: HEK293 cell cytotoxicity, dose response, cytotoxicity control, plate reader, cherry-picked samples (AID 743446). It is filed as functional, cell-based.
Assay [17] can be described thus: LGR2 antagonists, dose response, cell-based, HEK293, CRE-luciferase reporter, cherry pick, set 2 (AID 743343).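 Also: transfected cells were stimulated with diluted bursicon conditioned medium after compound addition.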 It is filed as functional.
The nature of assay [18]: A549 cell cytotoxicity, dose response, cytotoxicity control, plate reader, cherry-pick, antagonist series (AID 743412). It is filed as functional, cell-based.
Assay [19] can be described thus: HepG2 cell cytotoxicity, dose response, cytotoxicity control, plate reader, cherry-pick, antagonist series (AID 743416). Format: functional, cell-based.
Assay [20] can be described thus: MC4R antagonists, dose response, counter-screen for LGR2 antagonist project, cell-based, plate reader, cherry pick (AID 743444).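 Also: transfected HEK 293 cells stimulated with alpha-MSH peptide; potency of inhibitors of the alpha-MSH evoked signal.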 Format: functional.
Assay [21] can be described thus: HEK293T cytotoxicity, dose response, cytotoxicity control for miR-122 modulator project, cell-based, activator set, cherry-pick (AID 720690).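 Also: HEK293T human cells scored for general mammalian cytotoxicity.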 It is filed as functional.
The nature of assay [22]: non-specific cell cytotoxicity, dose response, cytotoxicity control for PAX8 inhibitor project, plate reader, dry powder samples (AID 743021). Format: functional, cell-based.

Consider `COc1ccc(N2CCN(C(=O)c3cc4c(s3)-c3ccccc3OC4)CC2)cc1`, for which, on Beta-galactosidase, the IC50 is > 80 µM (inactive).
Regarding `CC(=O)Oc1ccccc1/C=C/c1nc2ccccc2c(=O)o1`, in assay [1], the IC50 is 5.31 µM (active).
On to `Cc1cc(O)cc(O)c1C(=O)Cc1cnn(-c2ccccc2)c1`, for which, at Protein Tat, the IC50 is > 100 µM (inconclusive).
For the molecule `Cc1cc(C(C)(C)C)oc1C(=O)N(CC(=O)NC1CCCC1)Cc1ccc(Cl)cc1`, the AC50 in assay [2] is 49.5 µM (active); in assay [3], 6.45 µM (active); in [4], > 70 µM (inactive).
Regarding `CN1CCN(C(=O)/C=C/c2ccc(Cl)cc2)CC1`, the IC50 at Beta-galactosidase was > 80 µM (inactive).
The same measure, in the same setting: the figure for `CCN1CCN(c2ccc(S(=O)(=O)N3CCOCC3)cc2NC(=O)/C=C/c2ccc(C)cc2)CC1` is > 80 µM (inactive).
For the molecule `COc1ccc(/N=C/c2sc(O)c3ccccc23)cc1`, the EC50 with H4 was < 0.1 µM (active); in assay [5], 0.228 µM (active); in [6] it was < 0.1 µM (active); in assay [7], 0.433 µM (active); in [8], < 0.1 µM (active); in assay [9] it was 0.315 µM (active).
For `O=C(C[C@@H]1CC[C@@H]2[C@H](COC[C@@H](O)CN2C(=O)Nc2ccc(Cl)c(Cl)c2)O1)NCc1ccc(Cl)cc1`, the AC50 is 33.9 µM (active) in [10]; 60 µM (active) in assay [11]; 53.3 µM (active) in [12]; 8.87 µM (active) at Paired box protein Pax-8; 33.5 µM (active) in assay [13].
Turning to `CC(C)c1ccc(OCCCN2CCC(C(O)(c3ccccc3)c3ccccc3)CC2)cc1`, the AC50 in assay [14] was 9.48 µM (active); in [2], 7.21 µM (active); in [15] it was 9.88 µM (active); in [16], 14 µM (active); in assay [17], 6.8 µM (active); in assay [18], 9.56 µM (active). The AC50 in [19] was 7.6 µM (active); in assay [20], 5.65 µM (active); in assay [3], 9.63 µM (active); in [4], 7.88 µM (active).
For `C[C@@H]1CN([C@@H](C)CO)S(=O)(=O)c2ccc(C#Cc3ccccc3F)cc2O[C@@H]1CN(C)C(=O)c1ccc2c(c1)OCO2`, the AC50 in assay [12] is > 70 µM (inactive); at Paired box protein Pax-8 it was 13.2 µM (active); in [13], 20.5 µM (active); in assay [21], 26.9 µM (active).
For the molecule `O=C(Cc1cccnc1)N1CCCCN2[C@H](C1)[C@H](c1ccc(/C=C/c3ccccc3)cc1)[C@@H]2CO`, the AC50 in assay [11] is 25.1 µM (active); in assay [12] it was 41.2 µM (active); in assay [22], 50.6 µM (active); on Paired box protein Pax-8 it was 4.42 µM (active); in [13] it was 5.01 µM (active).
